# Reference: patent US9738634B2, “Heterocyclic amide compound and herbicide” (SYNGENTA PARTICIPATIONS AG, priority 2013, dated 2017)
# How the values were obtained:
# Type in all cases: in vivo
# barnyard grass [1] = experiment: Test Example 1: weedkilling efficacy, preemergent weed treatment in the submerged state; A: barnyard grass; details: treatment dosage 252 g/ha
# Outline: (§1)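 Pots of alluvial soil flooded 4 cm deep, sown with barnyard grass, bulrush and oval-leafed pondweed and transplanted with 2.5-leaf rice. Emulsified compound applied to the water surface on sowing day at stated g/ha; greenhouse 25–30 °C, effects assessed 3 weeks after treatment.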
# bulrush [2] = experiment: Test Example 1: weedkilling efficacy, preemergent weed treatment in the submerged state; B: bulrush; details: treatment dosage 252 g/ha
# Outline: as §1
# oval-leafed pondweed [3] = experiment: Test Example 1: weedkilling efficacy, preemergent weed treatment in the submerged state; C: oval-leafed pondweed; details: treatment dosage 252 g/ha
# Outline: as §1
# transplanted rice = experiment: Test Example 1: preemergent weed treatment in the submerged state, effect on crop; a: transplanted rice; details: treatment dosage 252 g/ha
# Outline: as §1
# barnyard grass [4] = experiment: Test Example 2: weedkilling efficacy, growth period weed treatment in the submerged state; A: barnyard grass; details: treatment dosage 252 g/ha
# Outline: (§2)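 Barnyard grass, bulrush and oval-leafed pondweed sown in alluvial soil under 4 cm flooding, greenhouse 25 to 30° C. At 1-2 leaf stage, water-diluted emulsion applied to the water surface at stated g/ha dosages; effects scored 3 weeks later.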
# bulrush [5] = experiment: Test Example 2: weedkilling efficacy, growth period weed treatment in the submerged state; B: bulrush; details: treatment dosage 252 g/ha
# Outline: as §2
# oval-leafed pondweed [6] = experiment: Test Example 2: weedkilling efficacy, growth period weed treatment in the submerged state; C: oval-leafed pondweed; details: treatment dosage 252 g/ha
# Outline: as §2
# crabgrass [7] = experiment: Test Example 3: weedkilling efficacy through soil treatment; D: crabgrass; details: treatment dosage 315 g/ha
# Outline: (§3)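 Crop and weed responses were judged three weeks after a uniform surface spray of the water-diluted emulsion at the given g/ha rate. Seeds sat beneath about 1.5 cm of sterilized diluvial soil, and boxes stood in a greenhouse at 25 to 30° C.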
# green foxtail [8] = experiment: Test Example 3: weedkilling efficacy through soil treatment; E: green foxtail; details: treatment dosage 315 g/ha
# Outline: as §3
# black-grass [9] = experiment: Test Example 3: weedkilling efficacy through soil treatment; H: black-grass; details: treatment dosage 315 g/ha
# Outline: as §3
# Italian ryegrass [10] = experiment: Test Example 3: weedkilling efficacy through soil treatment; I: Italian ryegrass; details: treatment dosage 315 g/ha
# Outline: as §3
# Indian mallow [11] = experiment: Test Example 3: weedkilling efficacy through soil treatment; K: Indian mallow; details: treatment dosage 315 g/ha
# Outline: as §3
# redroot pigweed [12] = experiment: Test Example 3: weedkilling efficacy through soil treatment; L: redroot pigweed; details: treatment dosage 315 g/ha
# Outline: as §3
# fig-leafed goosefoot [13] = experiment: Test Example 3: weedkilling efficacy through soil treatment; M: fig-leafed goosefoot; details: treatment dosage 315 g/ha
# Outline: as §3
# chickweed [14] = experiment: Test Example 3: weedkilling efficacy through soil treatment; N: chickweed; details: treatment dosage 315 g/ha
# Outline: as §3
# birds-eye speedwell [15] = experiment: Test Example 3: weedkilling efficacy through soil treatment; p: birds-eye speedwell; details: treatment dosage 315 g/ha
# Outline: as §3
# directly sown rice [16] = experiment: Test Example 3: soil treatment, effect on crop; b: directly sown rice; details: treatment dosage 315 g/ha
# Outline: as §3
# corn [17] = experiment: Test Example 3: soil treatment, effect on crop; c: corn; details: treatment dosage 315 g/ha
# Outline: as §3
# soybean [18] = experiment: Test Example 3: soil treatment, effect on crop; d: soybean; details: treatment dosage 315 g/ha
# Outline: as §3
# beet [19] = experiment: Test Example 3: soil treatment, effect on crop; f: beet; details: treatment dosage 315 g/ha
# Outline: as §3
# crabgrass [20] = experiment: Test Example 4: weedkilling efficacy by foliar treatment; D: crabgrass; details: treatment dosage 315 g/ha
# Procedure: (§4) Testing of Weedkilling Efficacy by Foliar Treatment
# (§5) Sterilized diluvial soil was introduced into 21 cm long, 13 cm wide, 7 cm deep plastic boxes, and seeds of crabgrass, green foxtail, barnyard grass, wild oat, black-grass, Italian ryegrass, common wind-grass, Indian mallow, redroot pigweed, fig-leafed goosefoot, chickweed, catchweed, birds-eye speedwell, corn, soybean, rice, wheat, beet and rapeseed were each spot-sown, and covered with about 1.5 cm of soil, then the plants were grown in a greenhouse at 25 to 30° C.
# (§6) After they had grown for 14 days, emulsions of compounds of the present invention prepared according to compounding example 2 were diluted with water to give the specified dosages, and applied uniformly onto the stem and leaf parts with a small sprayer. 3 weeks after the pesticide treatment the effect on each type of plant was investigated on the basis of the assessment criteria of test example 1.
# (§7) A: barnyard grass, B: bulrush, C: oval-leafed pondweed, D: crabgrass, E: green foxtail, F: barnyard grass, G: wild oat, H: black-grass, I: Italian ryegrass, J: common wind-grass, K: Indian mallow, L: redroot pigweed, M: fig-leafed goosefoot, N: chickweed, O: catchweed, p: birds-eye speedwell, a: transplanted rice, b: directly sown rice, c: corn, d: soybean, e: wheat, f: beet, g: rapeseed
# (§8) Further, pesticide dosage (g/ha) indicates the concentration regulated such that treatment was with only the stated number of grams (g), when calculated per hectare (ha).
# green foxtail [21] = experiment: Test Example 4: weedkilling efficacy by foliar treatment; E: green foxtail; details: treatment dosage 315 g/ha
# Procedure: as §4, §5, §6, §7, §8
# black-grass [22] = experiment: Test Example 4: weedkilling efficacy by foliar treatment; H: black-grass; details: treatment dosage 315 g/ha
# Procedure: as §4, §5, §6, §7, §8
# Italian ryegrass [23] = experiment: Test Example 4: weedkilling efficacy by foliar treatment; I: Italian ryegrass; details: treatment dosage 315 g/ha
# Procedure: as §4, §5, §6, §7, §8
# Indian mallow [24] = experiment: Test Example 4: weedkilling efficacy by foliar treatment; K: Indian mallow; details: treatment dosage 315 g/ha
# Procedure: as §4, §5, §6, §7, §8
# redroot pigweed [25] = experiment: Test Example 4: weedkilling efficacy by foliar treatment; L: redroot pigweed; details: treatment dosage 315 g/ha
# Procedure: as §4, §5, §6, §7, §8
# fig-leafed goosefoot [26] = experiment: Test Example 4: weedkilling efficacy by foliar treatment; M: fig-leafed goosefoot; details: treatment dosage 315 g/ha
# Procedure: as §4, §5, §6, §7, §8
# chickweed [27] = experiment: Test Example 4: weedkilling efficacy by foliar treatment; N: chickweed; details: treatment dosage 315 g/ha
# Procedure: as §4, §5, §6, §7, §8
# catchweed = experiment: Test Example 4: weedkilling efficacy by foliar treatment; O: catchweed; details: treatment dosage 315 g/ha
# Procedure: as §4, §5, §6, §7, §8
# birds-eye speedwell [28] = experiment: Test Example 4: weedkilling efficacy by foliar treatment; p: birds-eye speedwell; details: treatment dosage 315 g/ha
# Procedure: as §4, §5, §6, §7, §8
# directly sown rice [29] = experiment: Test Example 4: foliar treatment, effect on crop; b: directly sown rice; details: treatment dosage 315 g/ha
# Procedure: as §4, §5, §6, §7, §8
# corn [30] = experiment: Test Example 4: foliar treatment, effect on crop; c: corn; details: treatment dosage 315 g/ha
# Procedure: as §4, §5, §6, §7, §8
# soybean [31] = experiment: Test Example 4: foliar treatment, effect on crop; d: soybean; details: treatment dosage 315 g/ha
# Procedure: as §4, §5, §6, §7, §8
# wheat = experiment: Test Example 4: foliar treatment, effect on crop; e: wheat; details: treatment dosage 315 g/ha
# Procedure: as §4, §5, §6, §7, §8
# beet [32] = experiment: Test Example 4: foliar treatment, effect on crop; f: beet; details: treatment dosage 315 g/ha
# Procedure: as §4, §5, §6, §7, §8
smiles,measurement,setting,value
CC1=C(c2cccs2)C(=O)N(C(C)(C)C(=O)Nc2cccc(Cl)n2)CO1 [B-2-01],A (barnyard grass) weedkilling efficacy grade,barnyard grass [1],"5 (weed kill ratio 90% or more, (practically complete withering))"
same,B (bulrush) weedkilling efficacy grade,bulrush [2],"5 (weed kill ratio 90% or more, (practically complete withering))"
same,C (oval-leafed pondweed) weedkilling efficacy grade,oval-leafed pondweed [3],"5 (weed kill ratio 90% or more, (practically complete withering))"
same,a (transplanted rice) effect on crop grade,transplanted rice,"2 (weed kill ratio 20% or more, less than 40%)"
same,A (barnyard grass) weedkilling efficacy grade,barnyard grass [4],"5 (weed kill ratio 90% or more, (practically complete withering))"
same,B (bulrush) weedkilling efficacy grade,bulrush [5],"5 (weed kill ratio 90% or more, (practically complete withering))"
same,C (oval-leafed pondweed) weedkilling efficacy grade,oval-leafed pondweed [6],"5 (weed kill ratio 90% or more, (practically complete withering))"
same,D (crabgrass) weedkilling efficacy grade,crabgrass [7],"5 (weed kill ratio 90% or more, (practically complete withering))"
same,E (green foxtail) weedkilling efficacy grade,green foxtail [8],"5 (weed kill ratio 90% or more, (practically complete withering))"
same,H (black-grass) weedkilling efficacy grade,black-grass [9],"5 (weed kill ratio 90% or more, (practically complete withering))"
same,I (Italian ryegrass) weedkilling efficacy grade,Italian ryegrass [10],"5 (weed kill ratio 90% or more, (practically complete withering))"
same,K (Indian mallow) weedkilling efficacy grade,Indian mallow [11],"3 (weed kill ratio 40% or more, less than 70%)"
same,L (redroot pigweed) weedkilling efficacy grade,redroot pigweed [12],"4 (weed kill ratio 70% or more, less than 90%)"
same,M (fig-leafed goosefoot) weedkilling efficacy grade,fig-leafed goosefoot [13],"4 (weed kill ratio 70% or more, less than 90%)"
same,N (chickweed) weedkilling efficacy grade,chickweed [14],"3 (weed kill ratio 40% or more, less than 70%)"
same,P (birds-eye speedwell) weedkilling efficacy grade,birds-eye speedwell [15],"5 (weed kill ratio 90% or more, (practically complete withering))"
same,b (directly sown rice) effect on crop grade,directly sown rice [16],"5 (weed kill ratio 90% or more, (practically complete withering))"
same,c (corn) effect on crop grade,corn [17],0 (weed kill ratio 5% or less (practically no effect))
same,d (soybean) effect on crop grade,soybean [18],0 (weed kill ratio 5% or less (practically no effect))
same,f (beet) effect on crop grade,beet [19],"4 (weed kill ratio 70% or more, less than 90%)"
same,D (crabgrass) weedkilling efficacy grade,crabgrass [20],"5 (weed kill ratio 90% or more, (practically complete withering))"
same,E (green foxtail) weedkilling efficacy grade,green foxtail [21],"5 (weed kill ratio 90% or more, (practically complete withering))"
same,H (black-grass) weedkilling efficacy grade,black-grass [22],"5 (weed kill ratio 90% or more, (practically complete withering))"
same,I (Italian ryegrass) weedkilling efficacy grade,Italian ryegrass [23],"5 (weed kill ratio 90% or more, (practically complete withering))"
same,K (Indian mallow) weedkilling efficacy grade,Indian mallow [24],"3 (weed kill ratio 40% or more, less than 70%)"
same,L (redroot pigweed) weedkilling efficacy grade,redroot pigweed [25],"5 (weed kill ratio 90% or more, (practically complete withering))"
same,M (fig-leafed goosefoot) weedkilling efficacy grade,fig-leafed goosefoot [26],"4 (weed kill ratio 70% or more, less than 90%)"
same,N (chickweed) weedkilling efficacy grade,chickweed [27],"4 (weed kill ratio 70% or more, less than 90%)"
same,O (catchweed) weedkilling efficacy grade,catchweed,"4 (weed kill ratio 70% or more, less than 90%)"
same,P (birds-eye speedwell) weedkilling efficacy grade,birds-eye speedwell [28],0 (weed kill ratio 5% or less (practically no effect))
same,b (directly sown rice) effect on crop grade,directly sown rice [29],"5 (weed kill ratio 90% or more, (practically complete withering))"
same,c (corn) effect on crop grade,corn [30],0 (weed kill ratio 5% or less (practically no effect))
same,d (soybean) effect on crop grade,soybean [31],"5 (weed kill ratio 90% or more, (practically complete withering))"
same,e (wheat) effect on crop grade,wheat,"1 (weed kill ratio 5% or more, less than 20%)"
same,f (beet) effect on crop grade,beet [32],"4 (weed kill ratio 70% or more, less than 90%)"
